Values belong to the compound of their own block, whether it stands above or below them.
Legend:
[1] = molecular target: Tyrosine-protein kinase Lyn (Homo sapiens, UniProt P07948); experiment: Selectivity interaction (Ambit KINOMEscan and KiNATiv profiling in Jurkat cells) EUB0000090b LYN; assay type: cell-based; conditions: at 1 µM
[2] = molecular target: Cyclin-dependent kinase 1/cyclin B (Homo sapiens) (UniProt P06493+P14635+Q8WWL7+O95067); experiment: Selectivity interaction (Kinase panel (Invitrogen)) EUB0000639a CDK1; assay type: protein-complex assay; conditions: at 200 nM
[3] = molecular target: Calcium/calmodulin-dependent protein kinase type II subunit beta (Homo sapiens) (UniProt Q13554); experiment: Selectivity interaction (Kinase panel (Invitrogen)) EUB0000639a CAMK2B; conditions: at 200 nM
Chain of Calcium/calmodulin-dependent protein kinase type II subunit beta (Homo sapiens) (Q13554 whole entry): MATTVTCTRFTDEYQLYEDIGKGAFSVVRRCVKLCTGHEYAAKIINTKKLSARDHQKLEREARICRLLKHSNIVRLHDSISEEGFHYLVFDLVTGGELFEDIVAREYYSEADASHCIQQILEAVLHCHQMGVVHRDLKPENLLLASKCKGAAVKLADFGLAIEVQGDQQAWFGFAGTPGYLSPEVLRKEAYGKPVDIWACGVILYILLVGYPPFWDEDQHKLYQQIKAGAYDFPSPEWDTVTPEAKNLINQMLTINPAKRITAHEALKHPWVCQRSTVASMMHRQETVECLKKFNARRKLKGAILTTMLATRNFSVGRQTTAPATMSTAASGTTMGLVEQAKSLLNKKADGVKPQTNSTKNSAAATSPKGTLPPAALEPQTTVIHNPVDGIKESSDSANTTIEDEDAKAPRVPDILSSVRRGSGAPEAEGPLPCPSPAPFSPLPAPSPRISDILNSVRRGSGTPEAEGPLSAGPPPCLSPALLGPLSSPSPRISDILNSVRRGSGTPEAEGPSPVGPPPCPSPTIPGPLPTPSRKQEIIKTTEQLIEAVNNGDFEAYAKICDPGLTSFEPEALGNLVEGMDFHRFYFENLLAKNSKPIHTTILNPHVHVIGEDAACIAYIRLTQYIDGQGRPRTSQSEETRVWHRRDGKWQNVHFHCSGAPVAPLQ

[4] = molecular target: T1, Phosphatidylinositol 5-phosphate 4-kinase type-2 alpha (Homo sapiens) (UniProt P48426); experiment: Selectivity interaction (Kinase panel (literature)) EUB0001199aCl PIP4K2A; conditions: at 1 µM
T1 sequence (whole entry): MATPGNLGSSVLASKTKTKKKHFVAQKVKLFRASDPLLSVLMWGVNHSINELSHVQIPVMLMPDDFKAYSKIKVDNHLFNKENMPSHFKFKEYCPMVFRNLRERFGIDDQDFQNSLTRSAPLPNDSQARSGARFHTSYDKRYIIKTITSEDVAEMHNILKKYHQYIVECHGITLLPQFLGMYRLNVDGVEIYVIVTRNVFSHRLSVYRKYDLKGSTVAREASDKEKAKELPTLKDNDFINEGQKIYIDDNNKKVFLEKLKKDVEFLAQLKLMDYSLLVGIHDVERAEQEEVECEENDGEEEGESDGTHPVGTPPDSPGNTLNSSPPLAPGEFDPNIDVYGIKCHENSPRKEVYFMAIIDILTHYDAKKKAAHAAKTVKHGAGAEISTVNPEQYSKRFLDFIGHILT

hERG (KCNH2) = hERG (KCNH2) (Homo sapiens, UniProt Q12809); experiment: Selectivity interaction (Eurofins CEREP Diversity Profile (receptors and ion channels)) EUB0000279b KCNH2; conditions: at 10 µM, read-out: % of control
Chain of hERG (KCNH2) (Q12809 whole entry): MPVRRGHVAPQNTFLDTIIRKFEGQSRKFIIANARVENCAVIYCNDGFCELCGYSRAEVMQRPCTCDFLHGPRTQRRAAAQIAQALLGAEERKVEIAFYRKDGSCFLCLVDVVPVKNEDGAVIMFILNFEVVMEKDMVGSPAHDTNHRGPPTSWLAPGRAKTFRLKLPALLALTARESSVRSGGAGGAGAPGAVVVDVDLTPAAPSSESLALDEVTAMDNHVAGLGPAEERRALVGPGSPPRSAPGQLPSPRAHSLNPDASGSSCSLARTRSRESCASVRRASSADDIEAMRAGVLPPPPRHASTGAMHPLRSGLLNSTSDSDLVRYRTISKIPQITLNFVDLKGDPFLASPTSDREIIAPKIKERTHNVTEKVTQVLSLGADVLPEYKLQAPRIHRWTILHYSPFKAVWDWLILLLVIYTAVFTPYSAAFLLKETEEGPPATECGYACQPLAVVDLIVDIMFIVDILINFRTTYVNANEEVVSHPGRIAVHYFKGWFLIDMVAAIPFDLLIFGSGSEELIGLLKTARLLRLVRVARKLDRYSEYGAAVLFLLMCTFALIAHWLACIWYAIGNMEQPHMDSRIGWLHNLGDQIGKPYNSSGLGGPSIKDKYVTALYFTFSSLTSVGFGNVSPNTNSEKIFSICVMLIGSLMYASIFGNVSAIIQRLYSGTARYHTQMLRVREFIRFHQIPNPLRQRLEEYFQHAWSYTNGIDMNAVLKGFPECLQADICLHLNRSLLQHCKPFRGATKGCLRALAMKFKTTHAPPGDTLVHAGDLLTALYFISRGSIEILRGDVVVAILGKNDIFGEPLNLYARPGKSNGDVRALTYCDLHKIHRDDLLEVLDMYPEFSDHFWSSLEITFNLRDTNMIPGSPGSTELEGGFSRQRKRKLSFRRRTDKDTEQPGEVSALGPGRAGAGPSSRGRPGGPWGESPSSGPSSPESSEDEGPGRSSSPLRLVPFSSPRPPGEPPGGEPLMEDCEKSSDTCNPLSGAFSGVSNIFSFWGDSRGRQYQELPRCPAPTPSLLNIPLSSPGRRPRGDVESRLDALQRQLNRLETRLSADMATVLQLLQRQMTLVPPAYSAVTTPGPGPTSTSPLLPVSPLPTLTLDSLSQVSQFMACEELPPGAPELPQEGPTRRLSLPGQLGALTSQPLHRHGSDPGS

[5] = molecular target: T2, Testis-specific serine/threonine-protein kinase 3 (Homo sapiens) (UniProt Q96PN8); experiment: Selectivity interaction (KinomeScan (DiscoverX)) EUB0000229b TSSK3; conditions: at 10 µM
T2 sequence (whole entry): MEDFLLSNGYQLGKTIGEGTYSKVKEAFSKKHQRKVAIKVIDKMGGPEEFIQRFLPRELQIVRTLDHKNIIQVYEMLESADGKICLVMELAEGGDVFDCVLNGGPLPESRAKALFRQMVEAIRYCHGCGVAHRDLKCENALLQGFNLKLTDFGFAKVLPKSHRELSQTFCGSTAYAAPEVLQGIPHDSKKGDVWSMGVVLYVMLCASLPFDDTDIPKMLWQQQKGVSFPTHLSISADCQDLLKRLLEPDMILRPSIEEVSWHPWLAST

[6] = molecular target: T3, Serine/threonine-protein kinase TAO2 (Homo sapiens) (UniProt Q9UL54); experiment: Selectivity interaction (KinomeScan (DiscoverX)) EUB0001079a TAOK2; conditions: at 1 µM
T3 sequence (whole entry): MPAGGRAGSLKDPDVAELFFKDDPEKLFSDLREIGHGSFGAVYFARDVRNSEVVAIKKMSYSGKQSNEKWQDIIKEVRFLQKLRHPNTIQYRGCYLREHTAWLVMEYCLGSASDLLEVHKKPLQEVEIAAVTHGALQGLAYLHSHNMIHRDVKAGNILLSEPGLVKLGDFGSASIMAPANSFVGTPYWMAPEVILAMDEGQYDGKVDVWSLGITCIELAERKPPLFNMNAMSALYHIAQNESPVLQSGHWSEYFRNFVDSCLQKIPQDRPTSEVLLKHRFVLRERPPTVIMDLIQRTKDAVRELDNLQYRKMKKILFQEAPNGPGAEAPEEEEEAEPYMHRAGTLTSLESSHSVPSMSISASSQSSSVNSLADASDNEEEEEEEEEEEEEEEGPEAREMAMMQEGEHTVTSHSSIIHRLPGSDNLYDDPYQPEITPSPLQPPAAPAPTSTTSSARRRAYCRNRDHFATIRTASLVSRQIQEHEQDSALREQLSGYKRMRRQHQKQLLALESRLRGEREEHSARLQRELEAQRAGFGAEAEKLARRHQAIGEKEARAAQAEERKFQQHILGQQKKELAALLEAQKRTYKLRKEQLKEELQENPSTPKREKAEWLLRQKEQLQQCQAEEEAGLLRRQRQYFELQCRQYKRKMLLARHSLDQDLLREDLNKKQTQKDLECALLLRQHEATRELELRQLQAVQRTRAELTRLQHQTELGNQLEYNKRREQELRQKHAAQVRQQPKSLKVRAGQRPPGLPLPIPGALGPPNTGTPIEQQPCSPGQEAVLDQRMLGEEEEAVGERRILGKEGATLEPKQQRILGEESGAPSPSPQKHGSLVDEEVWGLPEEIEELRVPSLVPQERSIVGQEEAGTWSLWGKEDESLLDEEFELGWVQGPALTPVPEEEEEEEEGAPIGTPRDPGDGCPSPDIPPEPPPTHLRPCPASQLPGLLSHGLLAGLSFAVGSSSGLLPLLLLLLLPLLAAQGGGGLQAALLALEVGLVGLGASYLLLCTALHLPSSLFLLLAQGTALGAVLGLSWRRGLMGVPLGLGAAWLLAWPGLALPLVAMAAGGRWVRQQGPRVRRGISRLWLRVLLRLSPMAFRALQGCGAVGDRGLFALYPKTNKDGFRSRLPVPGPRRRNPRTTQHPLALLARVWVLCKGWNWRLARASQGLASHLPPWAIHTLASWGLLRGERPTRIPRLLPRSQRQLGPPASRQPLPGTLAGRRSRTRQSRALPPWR

[7] = molecular target: Ribosomal protein S6 kinase alpha-4 (Homo sapiens) (UniProt O75676); experiment: Selectivity interaction (KinomeScan (DiscoverX)) EUB0000045b RPS6KA4; conditions: at 10 µM
Chain of Ribosomal protein S6 kinase alpha-4 (Homo sapiens) (O75676 whole entry, looked up): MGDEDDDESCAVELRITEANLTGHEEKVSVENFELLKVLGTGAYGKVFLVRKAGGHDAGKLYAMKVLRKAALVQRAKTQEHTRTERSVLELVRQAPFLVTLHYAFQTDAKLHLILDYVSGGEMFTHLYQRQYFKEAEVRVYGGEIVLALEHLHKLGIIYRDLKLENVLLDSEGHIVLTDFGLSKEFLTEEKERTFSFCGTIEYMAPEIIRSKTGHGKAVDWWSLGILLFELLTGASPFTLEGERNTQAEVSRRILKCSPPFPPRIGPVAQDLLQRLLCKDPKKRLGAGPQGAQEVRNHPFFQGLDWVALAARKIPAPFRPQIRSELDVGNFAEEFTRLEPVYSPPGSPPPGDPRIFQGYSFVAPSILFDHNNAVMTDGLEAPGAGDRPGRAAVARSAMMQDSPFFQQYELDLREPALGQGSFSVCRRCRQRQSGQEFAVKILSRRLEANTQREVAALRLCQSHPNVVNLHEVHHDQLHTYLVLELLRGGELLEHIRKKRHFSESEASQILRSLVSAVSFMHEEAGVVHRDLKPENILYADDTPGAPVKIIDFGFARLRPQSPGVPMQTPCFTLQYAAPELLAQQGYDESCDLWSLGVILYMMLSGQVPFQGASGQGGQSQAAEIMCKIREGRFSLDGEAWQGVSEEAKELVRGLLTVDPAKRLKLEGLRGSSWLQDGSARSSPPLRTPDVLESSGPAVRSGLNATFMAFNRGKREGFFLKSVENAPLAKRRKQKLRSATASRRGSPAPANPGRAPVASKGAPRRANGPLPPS

[8] = molecular target: T4, Serine/threonine-protein kinase 17B (Homo sapiens) (UniProt O94768); experiment: Selectivity interaction (KinomeScan (DiscoverX)) EUB0001619a STK17B; conditions: at 1 µM
T4 sequence (whole entry): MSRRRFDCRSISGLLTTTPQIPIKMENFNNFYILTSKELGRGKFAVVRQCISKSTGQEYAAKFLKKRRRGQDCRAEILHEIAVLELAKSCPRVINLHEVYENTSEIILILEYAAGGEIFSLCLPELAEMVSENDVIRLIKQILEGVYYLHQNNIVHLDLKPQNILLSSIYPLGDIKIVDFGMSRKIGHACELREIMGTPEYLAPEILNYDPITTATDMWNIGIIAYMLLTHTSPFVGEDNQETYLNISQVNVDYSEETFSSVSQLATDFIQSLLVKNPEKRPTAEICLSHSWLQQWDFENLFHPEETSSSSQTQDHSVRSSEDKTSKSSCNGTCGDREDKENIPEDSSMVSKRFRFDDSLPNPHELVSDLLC

[9] = molecular target: Myosin-IIIa (Homo sapiens) (UniProt Q8NEV4); experiment: Selectivity interaction (KinomeScan (DiscoverX)) EUB0000618a MYO3A; conditions: at 10 µM
[10] = molecular target: Mitogen-activated protein kinase kinase kinase kinase 4 (Homo sapiens, UniProt O95819); experiment: Selectivity interaction (KinomeScan (DiscoverX)) EUB0000607a MAP4K4; conditions: at 10 µM
Chain of Mitogen-activated protein kinase kinase kinase kinase 4 (O95819 2-1239 limits assumed): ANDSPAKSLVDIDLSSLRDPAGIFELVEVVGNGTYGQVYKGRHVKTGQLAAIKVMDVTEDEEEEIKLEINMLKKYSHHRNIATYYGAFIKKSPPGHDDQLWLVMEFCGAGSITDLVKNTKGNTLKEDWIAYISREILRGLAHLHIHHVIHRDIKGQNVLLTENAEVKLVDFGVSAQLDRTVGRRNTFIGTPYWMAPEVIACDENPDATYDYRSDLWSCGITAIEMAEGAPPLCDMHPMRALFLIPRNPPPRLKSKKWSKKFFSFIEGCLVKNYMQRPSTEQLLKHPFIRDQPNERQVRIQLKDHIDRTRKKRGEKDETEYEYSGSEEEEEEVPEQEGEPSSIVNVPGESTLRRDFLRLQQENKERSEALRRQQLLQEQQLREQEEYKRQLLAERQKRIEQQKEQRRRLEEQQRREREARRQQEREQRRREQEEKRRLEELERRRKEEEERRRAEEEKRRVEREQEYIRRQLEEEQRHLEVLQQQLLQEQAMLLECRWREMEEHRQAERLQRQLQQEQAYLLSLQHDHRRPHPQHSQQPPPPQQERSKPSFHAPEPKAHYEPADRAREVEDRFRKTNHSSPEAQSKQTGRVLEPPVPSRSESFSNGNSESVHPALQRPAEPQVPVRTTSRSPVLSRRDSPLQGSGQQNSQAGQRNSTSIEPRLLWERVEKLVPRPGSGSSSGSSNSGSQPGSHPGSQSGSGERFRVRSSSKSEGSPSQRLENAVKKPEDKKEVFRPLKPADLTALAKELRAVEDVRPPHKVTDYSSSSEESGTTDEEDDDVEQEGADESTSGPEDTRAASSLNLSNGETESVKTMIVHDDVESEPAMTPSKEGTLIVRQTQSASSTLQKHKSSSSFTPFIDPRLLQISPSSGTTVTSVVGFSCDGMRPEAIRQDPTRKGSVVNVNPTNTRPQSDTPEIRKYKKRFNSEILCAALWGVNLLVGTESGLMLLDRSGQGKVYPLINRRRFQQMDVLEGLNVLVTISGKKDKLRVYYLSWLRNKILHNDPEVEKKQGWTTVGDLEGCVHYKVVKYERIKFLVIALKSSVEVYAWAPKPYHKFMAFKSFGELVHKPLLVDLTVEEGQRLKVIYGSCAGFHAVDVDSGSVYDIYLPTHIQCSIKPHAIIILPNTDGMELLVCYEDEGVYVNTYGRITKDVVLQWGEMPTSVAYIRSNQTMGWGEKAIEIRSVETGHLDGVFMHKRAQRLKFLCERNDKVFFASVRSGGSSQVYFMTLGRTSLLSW

Chain of Tyrosine-protein kinase Lyn (P07948 2-512 limits assumed): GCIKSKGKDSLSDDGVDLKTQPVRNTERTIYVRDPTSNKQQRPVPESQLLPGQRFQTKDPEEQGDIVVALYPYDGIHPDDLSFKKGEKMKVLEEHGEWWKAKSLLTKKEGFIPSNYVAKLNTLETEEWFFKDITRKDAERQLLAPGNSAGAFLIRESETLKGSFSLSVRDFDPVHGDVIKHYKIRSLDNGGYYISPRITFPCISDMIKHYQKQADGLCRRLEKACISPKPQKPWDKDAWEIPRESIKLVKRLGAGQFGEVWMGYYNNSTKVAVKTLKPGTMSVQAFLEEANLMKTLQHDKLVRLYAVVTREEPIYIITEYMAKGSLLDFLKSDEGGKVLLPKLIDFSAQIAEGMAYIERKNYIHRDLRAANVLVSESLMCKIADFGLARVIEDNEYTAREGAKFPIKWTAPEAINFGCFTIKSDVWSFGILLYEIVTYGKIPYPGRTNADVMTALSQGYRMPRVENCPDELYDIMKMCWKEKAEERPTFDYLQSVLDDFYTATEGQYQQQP

SMILES: CN(C)C/C=C/C(=O)Nc1ccc(C(=O)N2CCCC(Nc3ncc(Cl)c(-c4c[nH]c5ccccc45)n3)C2)cc1 (stereo unspecified)
- % of control [1]: 100%

- % of inhibition [2]: 11.5%
- % of inhibition [3]: 10.8%
SMILES: CC[C@@H]1[C@H](F)C(=O)N[C@@H]1COc1nccc2cc(C(N)=O)c(OC)cc12 [ZIMLOVISERTIB]

- % of inhibition [4]: -6%
SMILES: CN1Cc2nccc(-c3cn(C)nc3-c3ccc(F)cc3)c2C1=O

SMILES: CC(=O)c1cc(-c2ccccc2OCC2CC2)c2ncccn12
- activity (hERG (KCNH2)): 111%

SMILES: COc1cc(N(C)c2ccnc3ccc(C(F)(F)F)cc23)cc(OC)c1OC
- % binding [5]: 81%

SMILES: Nc1cnc(N2CCc3cc(S(=O)(=O)Nc4c(F)cc(Cl)cc4F)cc(N4CCCC4=O)c32)nc1 [TP-020n]
- % of control [6]: 78%

SMILES: C=CC(=O)Nc1cc(-n2c(=O)ccc3cnc4ccc(-c5ccc(NS(C)(=O)=O)cc5)cc4c32)ccc1C
- % of control [7]: 81%

SMILES: N#Cc1cccc(-c2c[nH]c3ncnc(N4CCOCC4)c23)c1
- % of control [8]: 100%

SMILES: O[C@H]1CC[C@H](Nc2ncc3nc(Nc4c(F)cc(F)cc4F)n([C@H]4CCOC4)c3n2)CC1
- % of control [9]: 100%

SMILES: CNC(=O)Nc1ccc(-c2nc(N3CC4CCC(C3)O4)c3cnn(C4CCC5(CC4)OCCO5)c3n2)cc1
- % of control [10]: 85%

Source: ChEMBL document CHEMBL5465560, “Selectivity Literature for EUbOPEN Chemogenomic Library” (2024)
